Data on two molecules can be found in US20240131004A1, “FUNCTIONALIZED 1,3-BENZENE DIOLS AND THEIR METHOD OF USE FOR THE TREATMENT OF INFLAMMATION AND PAIN” (KANNALIFE SCIENCES, INC., priority 2021, published 2024).

The test system of data set [1] is interleukin-6 (IL-6). In words: Interleukin-6 immunoreactive area in cell bodies and neurites of DRG neurons, paclitaxel reversal paradigm. It counts as cell-based, rat. The method, then:
(§1) The GPR55 antibody was obtained from abcam. […] The secondary antibodies were obtained from Life Technologies.
(§2) Referring to FIG. 3, responses of interleukin-6 (IL-6) immunoreactive (IR) areas (μ^2) in cell bodies (open circles) and neurites (closed circles) of rat DRG neurons from dissociated cultures are shown after pretreatment with 3 μM paclitaxel for 8 hours followed by 16 hours treatment with various concentrations of KLS -13019. Reference lines are provided to depict the average cell body IL-6 area (medium dash) and neurites IL-6 (dash-dot-dash) from control cultures. The zero-concentration data point on both curves depicts values for cultures treated only with 3 μM paclitaxel. […] To confirm, all treated cultures were continuously exposed to paclitaxel throughout the 24-hour duration of the experiment. […] Each value is the mean of 8 determinations. […] All assays were conducted by high content fluorescence imaging (Brenneman et al., 2018 and 2019).

The test system of data set [2] is GPR55. The data set is described as follows: Cell body GPR55 immunoreactive area in DRG neurons, paclitaxel reversal paradigm, high content imaging. It counts as cell-based, rat. The method, then: as §1
Responses of cell body GPR55 immunoreactive areas (μ^2) of neurons from dorsal root ganglion (DRG) cultures are shown in FIG. 2 after pretreatment with 3 μM paclitaxel for 8 hours followed by 16 hours treatment with various concentrations of KLS-13019. Reference lines are provided to depict the average cell body GPR55 area for control cultures (medium dash) and that of cultures pre-treated only with 3 μM paclitaxel (dash-dot-dash) for eight hours. […] Each value is the mean of 8 determinations. […] All assays were conducted by high content fluorescence imaging (Brenneman et al., 2018 and 2019).

Data set [3] has as its system GPR55. The data set is described as follows: Neuritic GPR55 immunoreactive area in DRG cultures, 6 h co-treatment with LPIA. The format is cell-based, rat. The text has this: Because of the recognized importance of sensory neurons in DRG to transmitting peripheral nociception (Krames, 2014) and the reported accumulation of paclitaxel in DRG from models of CIPN (Duggett et al., 2016), the preparation of choice for the in vitro studies to study protection and anti-inflammation was dissociated cultures from rat DRG. DRG cultures derived from embryonic day 18 rats were employed as the primary assay system to study KLS-13019-properties. In brief, DRG were obtained commercially through Brain Bits (Springfield, IL) and cultures prepared with slight modifications to methods previously described (Brenneman et al., 2019). Tissue was dissociated with a papain-based kit from Worthington Biochemical Corporation (Lakewood, NJ). The DRG cells were plated at low density (10,000 cells/well) in a 96-well format and maintained in serum-free medium consisting of Neurobasal Medium supplemented with B27, GlutaMAX (Gibco) and 25 ng/ml Nerve Growth Factor. Poly-D-lysine coated plates (BD Biosciences, Franklin Lakes, NJ) were employed for this culture system. Prior to the initiation of experiments between days 5 and 9 in vitro, a complete change of medium was performed in a working volume of 100 μL.
To assess all antibody-based assays, immunocytochemical methods were employed. The goals for these assays included: 1) to assess the immunoreactive area of our molecular targets (IL-1β, IL-6, GPR55, NLRPA3) with their respective primary antibodies and distinctively labeled secondary antibodies; and 2) to compare the relative responses in both neuronal cell bodies and neurites. Prior to fixation, growth medium was removed and the wells were rinsed one time with 100 μL of DPBS (37° C.). This warm rinse is particularly important to maintain structural stability of neurites. After removal of the DPBS, cultures were fixed for 20 min at room temperature with 50 μL/well of 3.5% formaldehyde (Sigma-Aldrich: 252549) in warm (37° C.) DPBS that contained 5.5 μg/mL of Hoechst 33342 dye (Invitrogen: H3570) to label cell nuclei. […]

Data set [4] addresses T1, human GPR55 (Homo sapiens, UniProt Q9Y2T6).
T1 construct: host or cells: CHO-K1
The data set is described as follows: PathHunter β-arrestin assay, human GPR55 in CHO-K1 cell line. It counts as cell-based. The method, then: In this assay, agonist-induced activation of GPR55 stimulates binding of β-arrestin to the Pro-link-tagged GPCR and forces complementation of two enzyme fragments, resulting in the formation of an active β-galactosidase enzyme. This interaction leads to an increase in enzyme activity that can be measured using chemiluminescent PathHunter detection reagents. For our application, the GPR55 agonist lysophosphatidylinositol (LPI) was tested from 0.1 nM to 30 μM to increase the relative luminescent signal relative to that of control. […] For the GPR55 antagonism assay, KLS-13019 concentrations ranging from 0.1 nM to 30 μM were tested in the presence of 16 μM LPI. Concentrations of KLS-13019 ranging from 0.1 nM to 30 μM were tested alone for possible effects of agonistic activity on β-arrestin.
A PathHunter β-arrestin assay is shown in FIG. 8 that provides a measure of an antagonist mode assessment of KLS-13019 with a human GPR55 model system (Eurofins). To measure the β-arrestin response to a GPR55 agonist, various concentrations of lysophosphatidylinositol (LPI) were used as shown in the closed circles. […] Based on these findings, 16 μM LPI was incubated with various concentrations of KLS-13019 to test for antagonistic properties (closed inverted triangles). […] All assays were conducted with an N=10.

In data set [5] the test system is NLRP3. The data set is described as follows: Neuritic NLRP3 immunoreactive spot area in hippocampal neurons, LPIA reversal paradigm. It counts as cell-based, rat. The text has this:
Tissue was dissociated with a papain-based kit from Worthington Biochemical Corporation (Lakewood, NJ).
To assess all antibody-based assays, immunocytochemical methods were employed. The goals for these assays included: 1) to assess the immunoreactive area of our molecular targets (IL-1β, IL-6, GPR55, NLRPA3) with their respective primary antibodies and distinctively labeled secondary antibodies; and 2) to compare the relative responses in both neuronal cell bodies and neurites. Prior to fixation, growth medium was removed and the wells were rinsed one time with 100 μL of DPBS (37° C.). This warm rinse is particularly important to maintain structural stability of neurites. After removal of the DPBS, cultures were fixed for 20 min at room temperature with 50 μL/well of 3.5% formaldehyde (Sigma-Aldrich: 252549) in warm (37° C.) DPBS that contained 5.5 μg/mL of Hoechst 33342 dye (Invitrogen: H3570) to label cell nuclei. After removal of the fixative, the cultures were rinsed twice with 100 μL of DPBS and then a permeabilization/blocking buffer containing 5% normal goat serum and 0.3% triton-X100 in DPBS was added to the cultures for 10 min. After removal of the blocking buffer, the cultures were rinsed twice with 100 μL of DPBS and then primary antibodies were added for one-hour incubation at room temperature. Neurons were identified with antiserum to type III beta tubulin (tuj 1) to measure changes in all neuronal parameters. The primary antiserum employed was rabbit anti-rat obtained from Sigma-Aldrich (T2200) and used at 1:200 dilution. The secondary was an Alexa Fluor 488-conjugated Fab fragment of goat anti-rabbit IgG obtained from Life Technologies (A11070) used at 1:600.

In data set [6] the test system is hippocampal cultures. In words: Alamar Blue cellular viability in hippocampal cultures, reversal of LPIA toxicity. It counts as cell-based, rat. The text has this: Because the scope of the anti-inflammatory actions of the 1,3-benzene diols included the central nervous system as well, hippocampal cultures were also employed as they express both mNCX-1 and GPR55, the two targets that mediate protection and inflammation, respectively. […] Poly-L-lysine-coated plates (BD Biosciences, Franklin Lakes, NJ) were used because of the preferential adherence and survival of neurons on this matrix support.
At the conclusion of each experiment, sister cultures to those assessed by image analysis were evaluated with either a fluorescent dye-based assays for neuronal viability (6-carboxyfluorescein diacetate, CFDA) or with viability dye Alamar Blue. The preferred dye was Alamar Blue as this assay of viability could be conducted and then the dye washed off the cultures for subsequent fixation and follow-up immunocytochemical assays. […] In addition, a portion of the reductive conversion of resazurin to the highly fluorescent resorufin in the Alamar Blue reagent is attributable to the action of mitochondrial reductases. Because of the need for enhanced sensitivity, the Alamar Blue assay was predominantly used for these studies. […]
On every plate, wells without cells were used to provide a blank reading that was used to subtract background fluorescence. […] Fluorescence was measured at an excitation of 530 nm and an emission of 590 on a Cytofluor plate reader. […]
In general terms: Resazurin is reduced to fluorescent resorufin, in cell work by metabolically active cells.

Data set [7] deals with interleukin-1β (IL-1β). The data set is described as follows: Interleukin-1β immunoreactive area in cell bodies and neurites of DRG neurons, paclitaxel reversal paradigm. It counts as cell-based, rat. The protocol: as §1
as §2, with “Responses” for “Referring to FIG. 3, responses”, “interleukin-1β (IL-1β)” for “interleukin-6 (IL-6)”, “shown in FIG. 4” for “shown”, “pre-treatment” for “pretreatment”, “KLS-13019.” for “KLS -13019.”, “IL-1β” for “IL-6”

For data set [8], the system named is dorsal root ganglion (DRG) cultures. In words: Alamar Blue cellular viability in DRG cultures, reversal of paclitaxel toxicity. The format is cell-based, rat. The protocol:
At the conclusion of each experiment, sister cultures to those assessed by image analysis were evaluated with either a fluorescent dye-based assays for neuronal viability (6-carboxyfluorescein diacetate, CFDA) or with viability dye Alamar Blue. The preferred dye was Alamar Blue as this assay of viability could be conducted and then the dye washed off the cultures for subsequent fixation and follow-up immunocytochemical assays. […] In addition, a portion of the reductive conversion of resazurin to the highly fluorescent resorufin in the Alamar Blue reagent is attributable to the action of mitochondrial reductases. Because of the need for enhanced sensitivity, the Alamar Blue assay was predominantly used for these studies. Similar results in assessing pharmacological responses were obtained with both assays (see Brenneman et al, 2019).
On every plate, wells without cells were used to provide a blank reading that was used to subtract background fluorescence. For the Alamar Blue viability assay, 10 ul of the dye was added directly to the culture well that contained 100 ul of nutrient medium (Ivanov et al., 2016). Incubation times with the dye ranged from 1-5 hrs., depending on the experimental goals. Fluorescence was measured at an excitation of 530 nm and an emission of 590 on a Cytofluor plate reader.
Referring to FIG. 1, cellular viability, as measured with the viability dye Alamar Blue, is shown with relative fluorescence units (RFU) in dorsal root ganglion (DRG) cultures after treatment with 3 μM paclitaxel for 8 hours followed by 16 hours treatment with various concentrations of KLS-13019. Reference lines are provided to depict the RFU levels for control cultures (medium dash) and cultures pre-treated only with 3 μM paclitaxel (dash-dot-dash) for eight hours. […] To confirm, all treated cultures were continuously exposed to paclitaxel throughout the 24-hour duration of the experiment. […] Each value is the mean of 6 determinations.

Data set [9] concerns cultures of the central and peripheral nervous system. Conditions: Kinney 2016; Brenneman 2018, 2019; US 9,611,213; US 10,004,722; cited from earlier work.
[10] abbreviates: 3 μM paclitaxel 8 h, then 16 h treatment.

SMILES strings stand for the structures. Entries after “also recorded” stand apart in the source; their conditions may differ.

T1 sequence (Q9Y2T6 whole entry): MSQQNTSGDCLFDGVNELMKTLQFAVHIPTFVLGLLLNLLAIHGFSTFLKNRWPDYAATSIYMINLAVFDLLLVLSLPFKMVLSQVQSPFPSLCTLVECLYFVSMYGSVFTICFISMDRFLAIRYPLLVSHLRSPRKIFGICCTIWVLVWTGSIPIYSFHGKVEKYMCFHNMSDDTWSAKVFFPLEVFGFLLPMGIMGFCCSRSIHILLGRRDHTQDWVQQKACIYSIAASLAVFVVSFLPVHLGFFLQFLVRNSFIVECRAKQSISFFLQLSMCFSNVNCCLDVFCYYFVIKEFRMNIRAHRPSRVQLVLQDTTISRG

For `C=C(C)[C@@H]1CCC(C)=C[C@H]1c1c(O)cc(CC2CN(C(C)=O)C2)cc1O` [KLS-13019, 1-(3-(3,5-dihydroxy-4-((1R,6R)-3-methyl-6-(prop-1-en-2-yl)cyclohex-2-enyl)benzyl)azetidin-1-yl)ethenone], the “Reversal of paclitaxel-induced increase in IL-6 IR area in cell bodies and neurites (efficacy)” value in data set [1] (setting [10]) is recorded as “fully returned to the average area of control cultures”. The IC50 (as a rule, the concentration at which inhibition is half-maximal) worked out at 0.3 nM in [1] (Rattus norvegicus, DRG neuron, read-out: IC50 in reversing previously established increases in IL-6 IR area); 0.107 ± 0.019 nM in data set [3] (Rattus norvegicus, 6 h, read-out: IC50 in preventing increases in GPR55 area); 0.129 ± 0.043 nM in [5] (Rattus norvegicus, Hippocampal neuron, 4 h, read-out: IC50 of decrease in neuritic NLRP3 area); 0.3 nM in data set [7] (Rattus norvegicus, DRG neuron, read-out: IC50 in reversing previously established increases in IL-1β IR area). The “Reversal of paclitaxel-induced increase in cell body GPR55 area (efficacy)” value in [2] (setting [10]) is “fully returned to the average area of control cultures”. The EC50 (as a rule, the concentration giving half of the maximal effect) was 2.31 nM in [2] (Rattus norvegicus, DRG neuron, read-out: EC50 in reversing previously established increases in GPR55 area); 0.4 nM in data set [6] (Rattus norvegicus, 4 h, read-out: EC50 in reversing previously established LPIA toxicity (Alamar Blue)); 0.2 nM in data set [8] (Rattus norvegicus, read-out: EC50 in reversing previously established paclitaxel toxicity (Alamar Blue)). Moreover, in data set [3] (co-treatment with 1 nM LPIA, 6 hours), the “Effect on LPIA-induced increase in neuritic GPR55” value is given as “blocked”. The “Agonist activity on β-arrestin, compound alone” value in data set [4] (0.1 nM to 30 μM tested alone) is “no detectible agonist activity; also recorded: no detectible increases in β-arrestin signal”. For the same molecule, the “Antagonism of LPI-mediated increases in β-arrestin signal” value in data set [4] (30 μM KLS-13019 in presence of 16 μM LPI, N=10) is reported as “completely blocked”. Besides, in data set [5] (1 nM KLS-13019, equimolar to LPIA), the “NLRP3 spot areas compared with control cultures (efficacy of reversal)” value was “not different from that of control cultures”. Moreover, the “Protection of hippocampal cells from LPIA toxicity (efficacy)” value in data set [6] (1 nM LPIA 4 h, then 4 h treatment, relative to control cultures) is given as “fully protect”. Moreover, in data set [7] (setting [10]), the “Reversal of paclitaxel-induced increase in IL-1β IR area in cell bodies and neurites (efficacy)” value was “fully restored to the average area of control cultures”. Also, in data set [8] (3 μM paclitaxel 8 h pre-treatment, then 16 h treatment, relative to control cultures), the “Protection of DRG cells from paclitaxel toxicity (efficacy)” value is “fully protect”. Further, the “Effect on oxidative stress and nerve cell damage in previous studies” value in data set [9] was “prevent oxidative stress and nerve cell damage”.

Consider `CC(=O)O[C@H]1C(=O)[C@@]2(C)[C@H]([C@H](OC(=O)c3ccccc3)[C@]3(O)C[C@H](OC(=O)[C@H](O)[C@@H](NC(=O)c4ccccc4)c4ccccc4)C(C)=C1C3(C)C)[C@]1(OC(C)=O)CO[C@@H]1C[C@@H]2O` [paclitaxel, reference compound], for which the “Effect of paclitaxel on IL-6 IR area in cell bodies and neurites” value in data set [1] (3 μM paclitaxel, DRG neurons) was “increases in IL-6 (IR) area”. Further, the “Effect of paclitaxel on cell body GPR55 immunoreactive area” value in [2] (3 μM paclitaxel, DRG cultures) is listed as “increases in GPR55 area”. Besides, the “Effect of paclitaxel on IL-1β IR area in cell bodies and neurites” value in data set [7] (3 μM paclitaxel, DRG neurons) was “increases in IL-1β (IR) area”. Further, in data set [8] (3 μM paclitaxel), the “Effect of paclitaxel on cellular viability of DRG cultures” value is reported as “toxicity”.
